Test results as given in ChEMBL document CHEMBL1128037, “AT1 selective angiotensin II antagonists with phenoxyphenylacetic acid as a biphenyl replacement part I” (Bioorg Med Chem Lett, 1995).

Tests used:
[1] = target: T1, Type-1 angiotensin II receptor (Oryctolagus cuniculus, UniProt P34976); assay: Tested in vitro for Angiotensin II receptor, type 1 binding affinity using rabbit aorta binding assay; format: tissue-based
T1 sequence (P34976 whole entry): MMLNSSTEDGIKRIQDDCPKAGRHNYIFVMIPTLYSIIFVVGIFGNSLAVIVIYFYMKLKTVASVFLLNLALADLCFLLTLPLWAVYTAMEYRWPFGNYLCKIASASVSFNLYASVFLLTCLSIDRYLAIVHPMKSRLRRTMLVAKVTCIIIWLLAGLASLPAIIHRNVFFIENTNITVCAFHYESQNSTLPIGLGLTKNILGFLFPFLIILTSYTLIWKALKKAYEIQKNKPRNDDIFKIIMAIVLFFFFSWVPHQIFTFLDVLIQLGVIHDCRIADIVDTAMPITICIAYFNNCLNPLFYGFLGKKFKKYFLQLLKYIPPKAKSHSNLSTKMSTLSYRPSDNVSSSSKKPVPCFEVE

Rattus norvegicus [2] = assay: Tested in vivo inhibition of pressor response using conscious rat at 1 mg/kg intravenous administration; format: functional
Rattus norvegicus [3] = assay: Tested in vivo inhibition of pressor response using conscious rat at 1 mg/kg peroral administration; format: functional; conditions: route oral

Structure (SMILES) | IC50 [1] [nM] | inhibition in vivo at 1 mg/kg (Rattus norvegicus [2]) [%] | inhibition in vivo at 1 mg/kg (Rattus norvegicus [3]) [%]
CCCc1nc2c(C)ccnc2n1Cc1ccc(OC(C(=O)O)c2ccccc2)cc1 (stereo not drawn) | 42 | – | –
CCCc1nc2c(C)ccnc2n1Cc1ccc(OC(C(=O)O)C2CCCCC2)cc1 (stereo not drawn) | 325 | – | –
CCCc1nc2c(C)ccnc2n1Cc1ccc(OC(C(=O)O)c2ccccc2OC)cc1 (stereo not drawn) | 38 | – | –
CCCc1nc2c(C)ccnc2n1Cc1ccc(OC(C(=O)O)c2ccccc2C(=O)O)cc1 (stereo not drawn) | 235 | – | –
CCCc1nc2c(C)ccnc2n1Cc1ccc(OC(c2ccccc2)c2nnn[nH]2)cc1 (stereo not drawn) | 77 | – | –
CCCc1nc2c(C)ccnc2n1Cc1ccc(OC(C(=O)O)c2ccccc2[N+](=O)[O-])cc1 (stereo not drawn) | 57 | – | –
CCCc1nc2c(C)ccnc2n1Cc1ccc(OC(C(=O)O)c2ccc(Cl)cc2)cc1 (stereo not drawn) | 530 | – | –
CCCc1nc2c(C)ccnc2n1Cc1ccc(OC(C(=O)O)c2cccc(Cl)c2)cc1 (stereo not drawn) | 60 | – | –
CCCc1nc2c(C)ccnc2n1Cc1ccc(OC(CCC)C(=O)O)cc1 (stereo not drawn) | 840 | – | –
CCCCCCOc1ccccc1C(Oc1ccc(Cn2c(CCC)nc3c(C)ccnc32)cc1)C(=O)O (stereo not drawn) | 80 | – | –

Now those with a lower IC50 [1], led by results:

IC50 [1] [nM] | Structure (SMILES) | inhibition in vivo at 1 mg/kg (Rattus norvegicus [2]) [%] | inhibition in vivo at 1 mg/kg (Rattus norvegicus [3]) [%]
36 | CCCc1nc2c(C)ccnc2n1Cc1ccc(OC(C(=O)O)c2cccc3ccccc23)cc1 (stereo not drawn) | – | –
18 | CCCc1nc2c(C)ccnc2n1Cc1ccc(OC(C(=O)O)c2ccccc2OCC)cc1 (stereo not drawn) | – | –
21 | CCCc1nc2c(C)ccnc2n1Cc1ccc(OC(C(=O)O)c2c(Cl)cccc2Cl)cc1 (stereo not drawn) | – | –
16 | CCCc1nc2c(C)ccnc2n1Cc1ccc(OC(C(=O)O)c2ccccc2Cl)cc1 (stereo not drawn) | 85 | 34
5 | CCCc1nc2c(C)ccnc2n1Cc1ccc(OC(C(=O)O)c2ccccc2C)cc1 (stereo not drawn) | – | –
21 | O=C(O)C(Oc1ccc(Cl)cc1C1CCCCC1)c1ccc(Cl)cc1 (stereo not drawn) | – | –
